The source of these data is US4981789A, “One-step enzymatic conversion of cephalosporin C and derivatives to 7-aminocephalosporanic acid and derivatives” (priority 1987, dated 1991).

This assay deals with cephalosporin C amidase. The experiment in a line: Conversion of desacetoxycephalosporin C to 7-ADCA by cephalosporin C amidase. The assay is classed as biochemical, Arthrobacter viscosus ATCC 53594. The procedure: As already described above, desacetoxycephalosporin C (DOAC) may be converted to 7-aminodesacetoxycephalosporanic acid (7-ADCA) using the enzyme and method of the present invention. This conversion may be illustrated as follows: [drawing 10] Cephalosporin C amidase, prepared as described above in Example 1, was incubated with 2 mg/ml DAOC for 3 hrs at 37° C. The reaction mixture required a pre-chromatography separation step using XAD-16® (Rohm and Haas) macroreticular water insoluble cross linked adsorbent polymer to remove coeluting contaminants. Chromatography was carried out in accordance with the procedures described above in Example 1 (except that the mobile phase consisted of 1 liter deionized water, 1.88 g hexyl sodium sulfonate, 2.025 ml phosphoric acid, and 25 ml acetonitrile, pH 2.75), and established that approximately 0.5 to 1.0% of the original DOAC substrate had been converted to 7-ADCA.

With `CC1=C(C(=O)O)N2C(=O)C(NC(=O)CCCC(N)C(=O)O)C2SC1` (stereo not shown) [DOAC, desacetoxycephalosporin C], the “extent of conversion to 7-ADCA compared with conversion of cephalosporin C to 7-ACA” value is “essentially equivalent to the conversion of cephalosporin C to 7-aminocephalosporanic acid”.
